Source: US6548515B1, “Dihydrofuro[3,4-b]quinolin-1-one compounds” (Les Laboratories Servier, priority 1999, dated 2003)
pIC50: −log10 of the molar value.

Legend:
[1] = test system: human colon carcinoma, HT29; assay: Cytotoxicity in vitro (Microculture Tetrazolium Assay), HT29; format: cell-based; settings: HT-29, 96 h, HT29 cells, incubated 4 days, inhibition of proliferation by 50%
Protocol: (§1) Three cell lines are used:
1 human colon carcinoma, HT29
(§2) The cells are cultured in complete RPMI 1640 culture medium containing 10% foetal calf serum, 2 mM glutamine, 50 units/ml of penicillin, 50 μg/ml of streptomycin and 10 mM Hepes, pH=7.4. The cells are distributed in microplates and exposed to the cytotoxic compounds. The cells are then incubated for 2 days (L1210) or 4 days (A549, HT29). The number of viable cells is then quantified by means of a calorimetric assay, the Microculture Tetrazolium Assay (Cancer Res. 1987, 47, 939-942).
(§3) The results are expressed as IC50, the concentration of cytotoxic agent that inhibits the proliferation of the treated cells by 50%.

[2] = test system: human non-small-cell lung carcinoma, A549; assay: Cytotoxicity in vitro (Microculture Tetrazolium Assay), A549; format: cell-based; settings: 96 h, A549 cells, incubated 4 days, inhibition of proliferation by 50%
Protocol: as §1
1 human non-small-cell lung carcinoma, A549,
as §2, §3

[3] = test system: murine leukaemia, L1210; assay: Cytotoxicity in vitro (Microculture Tetrazolium Assay), L1210; format: cell-based; settings: Mus musculus, 48 h; L1210 cells, incubated 2 days, inhibition of proliferation by 50%
Protocol: as §1
1 murine leukaemia, L1210,
as §2, §3

[4] = test system: P388 (murine leukaemia); assay: In vivo anti-tumour activity on P388 leukaemia; parameters: species or system female BDF1 mice; settings: P388 i.p. in BDF1 mice, intraperitoneal route on day 1, active from the 50 mg/kg dose
Protocol: Line P388 (murine leukaemia) was supplied by the National Cancer Institute (Frederick, USA). The tumour cells (10^6 cells) were inoculated on day 0 into the peritoneal cavity of female BDF1 mice (Iffa-Credo, France) weighing from 18 to 20 g (groups of 6 animals). The products were administered by the intraperitoneal route on day 1 (D1).
The anti-tumour activity is expressed as % T/C: [formula]

Compound	pIC50 [1]	pIC50 [2]	pIC50 [3]	T/C (survival of the treated animals) [4]
COc1cc(C2C3=C(COC3=O)Nc3cc4c(cc32)OCO4)cc(OC)c1OC (racemic) [Example 10, (±)-6,7-Methylenedioxy-9-(3,4,5-trimethoxyphenyl)-4,9-dihydrofuro[3,4-b]quinolin-1(3H)-one]	7.74	7.66	7.92	–
COc1cc(C2C3=C(COC3=O)N(C)c3cc4c(cc32)OCO4)cc(OC)c1OC (racemic) [Example 1, (±)-4-Methyl-6,7-methylenedioxy-9-(3,4,5-trimethoxyphenyl)-4,9-dihydrofuro[3,4-b]quinolin-1(3H)-one]	6.98	6.99	7.28	≥ 200%
COc1cc(CN2C3=C(C(=O)OC3)C(c3cc(OC)c(OC)c(OC)c3)c3cc4c(cc32)OCO4)cc(OC)c1O (racemic) [Example 8, (±)-4-(3,5-Dimethoxy-4-hydroxybenzyl)-6,7-methylenedioxy-9-(3,4,5-trimethoxyphenyl)-4,9-dihydrofuro[3,4-b]quinolin-1(3H)-one]	6.82	6.83	7.21	–
